Test results taken from patent publication US8779129B2, “Triazinedione derivatives as GABAB receptor modulators” (Addex Pharma S.A., priority 2006, dated 2014).

SMILES	melting point [°C]
CC(=O)Nc1cccc(-n2nc(CN(C)C)c(=O)n(Cc3ccc(Cl)cc3)c2=O)c1.Cl	143
CC(=O)Nc1cccc(-n2nc(C#N)c(=O)n(Cc3ccc(Cl)cc3)c2=O)c1 [1.01, N-(3-(4-(4-chlorobenzyl)-6-cyano-3,5-dioxo-4,5-dihydro-1,2,4-triazin-2(3H)-yl)phenyl)acetamide]	196
CC(=O)Nc1cccc(-n2ncc(=O)n(Cc3ccc(Cl)cc3)c2=O)c1 [2.01, N-(3-(4-(4-chlorobenzyl)-3,5-dioxo-4,5-dihydro-1,2,4-triazin-2(3H)-yl)phenyl)acetamide]	171 to 172
CC(=O)Nc1cccc(-n2ncc(=O)n(Cc3ccc(C#N)cc3)c2=O)c1 [2.05, N-(3-(4-(4-cyanobenzyl)-3,5-dioxo-4,5-dihydro-1,2,4-triazin-2(3H)-yl)phenyl)acetamide]	184 to 185
CC(=O)Nc1cccc(-n2ncc(=O)n(Cc3ccc(Cl)cc3F)c2=O)c1 [2.20, N-(3-(4-(4-chloro-2-fluorobenzyl)-3,5-dioxo-4,5-dihydro-1,2,4-triazin-2(3H)-yl)phenyl)acetamide]	184
CC(=O)Nc1cccc(-n2nc(C)c(=O)n(Cc3ccc(Cl)cc3)c2=O)c1 [3.01, N-(3-(4-(4-chlorobenzyl)-6-methyl-3,5-dioxo-4,5-dihydro-1,2,4-triazin-2(3H)-yl)phenyl)acetamide]	168
COc1nn(-c2cccc(NC(C)=O)c2)c(=O)n(Cc2ccc(Cl)cc2)c1=O [4.01, N-(3-(4-(4-chlorobenzyl)-6-methoxy-3,5-dioxo-4,5-dihydro-1,2,4-triazin-2(3H)-yl)phenyl)acetamide]	190 to 191
COc1nn(-c2cccc(NC(C)=O)c2)c(=O)n(Cc2ccc3c(c2)OC(F)(F)O3)c1=O [4.127, N-(3-(4-((2,2-difluorobenzo[d][1,3]dioxol-5-yl)methyl)-6-methoxy-3,5-dioxo-4,5-dihydro-1,2,4-triazin-2(3H)-yl)phenyl)acetamide]	184
COc1nn(-c2cccc(N(C)C(C)=O)c2)c(=O)n(Cc2ccc(Cl)cc2)c1=O [4.133, N-(3-(4-(4-chlorobenzyl)-6-methoxy-3,5-dioxo-4,5-dihydro-1,2,4-triazin-2(3H)-yl)phenyl)-N-methylacetamide]	157
COCC(=O)Nc1cccc(-n2nc(OC)c(=O)n(Cc3ccc(Cl)cc3)c2=O)c1 [4.141, N-(3-(4-(4-chlorobenzyl)-6-methoxy-3,5-dioxo-4,5-dihydro-1,2,4-triazin-2(3H)-yl)phenyl)-2-methoxyacetamide]	143
COc1nn(-c2ccccc2O)c(=O)n(Cc2ccc(Cl)cc2)c1=O [4.143, 4-(4-chlorobenzyl)-2-(2-hydroxyphenyl)-6-methoxy-1,2,4-triazine-3,5(2H,4H)-dione]	164 to 165
COc1nn(-c2cccc(Nc3nccs3)c2)c(=O)n(Cc2ccc(Cl)cc2)c1=O [4.144, 4-(4-chlorobenzyl)-6-methoxy-2-(3-(thiazol-2-ylamino)phenyl)-1,2,4-triazine-3,5(2H,4H)-dione]	176 to 178
COc1nn(-c2cccc(N3CCCC3=O)c2)c(=O)n(Cc2ccc(Cl)cc2)c1=O [4.145, 4-(4-chlorobenzyl)-6-methoxy-2-(3-(2-oxopyrrolidin-1-yl)phenyl)-1,2,4-triazine-3,5(2H,4H)-dione]	91 to 93
COc1nn(-c2cccc(-c3noc(C)n3)c2)c(=O)n(Cc2ccc(Cl)cc2)c1=O [4.146, 4-(4-chlorobenzyl)-6-methoxy-2-(3-(5-methyl-1,2,4-oxadiazol-3-yl)phenyl)-1,2,4-triazine-3,5(2H,4H)-dione]	163 to 165

Further lines, results first:

melting point [°C]	SMILES
178	CC(=O)Nc1cccc(-n2nc(C(C)C)c(=O)n(Cc3ccc(Cl)cc3)c2=O)c1 [5.01, N-(3-(4-(4-chlorobenzyl)-6-isopropyl-3,5-dioxo-4,5-dihydro-1,2,4-triazin-2(3H)-yl)phenyl)acetamide]
189 to 190	CC(=O)Nc1cccc(-n2nc(N(C)C)c(=O)n(Cc3ccc(Cl)cc3)c2=O)c1 [5.13, N-(3-(4-(4-chlorobenzyl)-6-(dimethylamino)-3,5-dioxo-4,5-dihydro-1,2,4-triazin-2(3H)-yl)phenyl)acetamide]
97	COCc1nn(-c2cccc(NC(C)=O)c2)c(=O)n(Cc2ccc(Cl)cc2)c1=O [5.16, N-(3-(4-(4-chlorobenzyl)-6-(methoxymethyl)-3,5-dioxo-4,5-dihydro-1,2,4-triazin-2(3H)-yl)phenyl)acetamide]
193	COC(=O)c1nn(-c2cccc(NC(C)=O)c2)c(=O)n(Cc2ccc(Cl)cc2)c1=O [5.17, Methyl 4-(4-chlorobenzyl)-2-(3-acetamidophenyl)-3,5-dioxo-2,3,4,5-tetrahydro-1,2,4-triazine-6-carboxylate]
183	CC(=O)Nc1cccc(-n2nc(C(=O)OC(C)C)c(=O)n(Cc3ccc(Cl)cc3)c2=O)c1 [5.18, Isopropyl 2-(3-acetamidophenyl)-4-(4-chlorobenzyl)-3,5-dioxo-2,3,4,5-tetrahydro-1,2,4-triazine-6-carboxylate]
